The values that follow come from patent US11980613B2, “Methods for reversing HIV latency using BAF complex modulating compounds” (priority 2018, dated 2024).

The experiment relates to BAF target genes c-MYC and p21. In words: Biomarkers: mRNA of BAF target genes p21 and c-MYC in CD4+ T cells. The class given is cell-based, human. As for the experimental part: [drawing 27] i. BRD-K25923209: To Macrocycle 2141-039b (0.804 g, 1.550 mmol) dissolved in MeOH (Volume: 15.50 ml) was added tin(II) chloride dihydrate (3.50 g, 15.50 mmol). The reaction mixture was stirred at 40° C. for 24 h until LC/MS indicated complete consumption of starting material (nitro) and presence of desired mass. Upon completion, the reaction mixture was concentrated and the resulting residue was dissolved in EtOAc and washed with 2 M aq. KOH (2×). The combined aqueous layers were washed with EtOAc (4×). The resulting organic layers were washed with brine, saturated aqueous NaHCO3, water, and brine, dried over MgSO4, filtered, and concentrated. The crude aniline was sufficiently pure to use in the capping step and therefore was used without purification. Note: The workup as described above produces a lot of precipitate/emulsion. This can be overcome by extensive washing or alternately, the reaction can be quenched with 1 volume of 1 M NaOH, stirred with celite for 10 minutes, and filtered prior to workup to yield 33.8% (17.2 mg) over 3 steps. (M+H)^+ calculated=489.286 (M+H)^+ average (3 ESI replicates)=489.2866±0.92. j. BRD-K80443127: A screwtop vial was charged with aniline (BRD-K25923209) (43.3 mg, 0.089 mmol) and CH2Cl2 (Volume: 886 μl, Density: 1.325 g/ml). Isopropyl chloroformate (115 μl, 0.115 mmol) and DIEA (46.4 μl, 0.266 mmol) were added dropwise and reaction stirred under ambient conditions for 1 h. […] The reaction mixture was loaded directly onto SiO2 and purified via ISCO (1-12% MeOH in CH2Cl2, 20 min); Collected fractions 40-44 to afford the product as a yellow oil in 33.8% (17.2 mg) yield. (M+H)^+ calculated=575.3228 (M+H)^+ average (3 ESI replicates)=575.3235±1.32. k. BRD-K04244835: A 2.5 mL microwave vial was charged with aniline (BRD-K25923209) (40 mg, 0.082 mmol) and EtOH (Volume: 819 μl, Density: 0.81 g/ml). Squaramide (CRE-III-001) (20.75 mg, 0.098 mmol), DIEA (42.8 μl, 0.246 mmol), and DMAP (2.000 mg, 0.016 mmol) were added in sequence and the vial was sealed. […] (M+H)^+ calculated=654.365 (M+H)^+ average (3 ESI replicates)=654.3661±1.64. […]

Consider `CO[C@H]1CN(C)C(=O)c2cc(NC(=O)OC(C)C)ccc2OC[C@H](C)N(Cc2ccc(-c3ccccn3)cc2)C[C@@H]1C` [BRD-K80443127], for which the “differential expression of c-MYC and p21” value (CD4+ T cells from 3 healthy donors, 3 μM, 16 hours) is “consistent with BAF inhibition”. Moreover, where the note is “three patients, 10 μM”, the C-MYC transcript levels result was “significant decrease” and the p21 transcript levels result was “significant decrease”.
